Experiment: State (liquid or solid) at standard temperature by visual observation
Format: physicochemical
Procedure: Whether compounds (I) of the present invention of Examples 1-3, trilinolein of Comparative Example 1 and HYA of Comparative Example 2 are liquid or solid at standard temperature (about 20° C.) was confirmed by visual observation.

Row | Compound | State at standard temperature (about 20° C.)
1 | CCCCC/C=C\C/C=C\CCCCCCCC(=O)OCC(COC(=O)CCCCCCCCC(O)C/C=C\CCCCC)OC(=O)CCCCCCC/C=C\C/C=C\CCCCC (stereo not drawn) [Ex. 1, Di(cis, cis-9,12-octadecadienoyl)(10-hydroxy-cis-12-octadecenoyl)glycerol] | liquid
2 | Tri(10-hydroxy-cis-12-octadecenoyl)glycerol [Ex. 3] | liquid
3 | CCCCC/C=C\C/C=C\CCCCCCCC(=O)OCC(COC(=O)CCCCCCC/C=C\C/C=C\CCCCC)OC(=O)CCCCCCC/C=C\C/C=C\CCCCC [compound 1, Trilinolein, reference compound] | liquid

Results, then the compound that gave them:

Row | State at standard temperature (about 20° C.) | Compound
4 | liquid | CCCCC/C=C\C/C=C\CCCCCCCC(=O)OC(COC(=O)CCCCCCCCC(O)C/C=C\CCCCC)COC(=O)CCCCCCCCC(O)C/C=C\CCCCC (stereo not drawn) [Ex. 2, Di(10-hydroxy-cis-12-octadecenoyl)(cis, cis-9,12-octadecadienoyl)glycerol]
5 | solid | CCCCC/C=C\CC(O)CCCCCCCCC(=O)O (stereo not drawn) [compound 2, 10-Hydroxy-cis-12-octadecenoic Acid, reference compound]
